Test results reported in patent publication US6177475A, “Methods of using integrin modulators for treatment of inflammation” (priority 1997, dated 2001).

What was measured:
VLA-4 (CS-1) = test: VLA-4-dependent adhesion of Jurkat and MV3 cells to CS-1; type: cell-based, human; conditions: in this concentration range
Procedure: Microtiter plates were coated with ligands of the integrin VLA-4, i.e., recombinant human VCAM-1 (500 nanograms per well) or the fragment of connective segment of human fibronectin (CS-1), covalently attached to ovalbumin (5 micrograms per well) by overnight incubation (4° C.) with solutions of the proteins in phosphate-buffered saline (PBS). The plates were blocked with 1% bovine serum albumin (BSA) in Hanks' buffered salt solution (HBSS-BSA). The cells (Jurkat or human melanoma MV3) were labeled with the fluorescent dye 5-chloromethylfluorescein diacetate (CMFDA) and introduced into the wells of the plates (10^5 cells per well) together with varying amounts of Ajoene. After incubation at 37° C. for 1 h, the unbound cells were removed by aspiration and the wells washed four times with HBSS-BSA. Thereafter, the bound cells were lysed with 0.5% Triton X-100, and the fluorescence was measured using a Cytofluor 2300 plate reader. The number of adherent cells was calculated from a standard dilution curve of Triton X-100 lysates of the CMFDA-labeled cells.

HIV-1RF = HIV-1RF replication in H9 cells (HIV antigens by solid phase immunoassay); type: cell-based; conditions: Human immunodeficiency virus 1, m.o.i. 0.1, 72 h
melanoma B16 cells [1] = test: Melanoma cell implantation (subcutaneous B16); type: in vivo, C57BL/6 mice; conditions: Mus musculus, sc; B16 cells pretreated 15 min; tumor volume at 14 and 21 days
Procedure: Male C57BL/6 mice were inoculated subcutaneously with 10^6 B16 cells (pretreated for 15 min with Ajoene) in their pretreatment medium, and the volume of the tumors formed was measured 14 and 21 days after the injection.

LFA-1 = test: TPA-induced homotypic adhesion (aggregation) of peripheral blood leukocytes; type: cell-based, human; conditions: ~100 micromoles per liter Ajoene
Procedure: Normal human peripheral blood leukocytes (PBLS) were cultured for 5 days without stimulation in complete RPMI medium (Sigma Chemical Co., St. Louis, Mo.), washed, and resuspended at 9×10^6 cells/ml in the same medium. Fifty microliters of the cells were added in duplicate to wells containing 100 microliters of an Ajoene solution (50 micrograms/ml),anti-LFA-1 antibody (H52) solution (20 micrograms/ml), or vehicle controls. The plate was then incubated for 30 min at 37° C. before adding to each well 50 microliters of a solution of 12-O-tetradecanoyl 4-β-phorbol 13-acetate (TPA) to the final concentration of 125 ng/ml). The plate was incubated for 45 min at 37° C., followed by additional 10-min incubation at room temperature on a shaking platform. The cells were allowed to settle, and adhesion was quantitated by counting the number of free cells in random high-power fields in the duplicate wells. Following incubation with TPA, 75 to 90% of cells are typically found in large aggregates as a result of LFA-1 upregulation. TPA induced a 90% aggregation in PBLs that were preincubated with vehicle controls. […] This example provides conclusive evidence that, in addition to GP IIb/IIIa and VIA-4, Ajoene modulates the integrin LFA-1. […]

[2] = test system: human sperm / zona-free hamster oocytes; test: Hamster oocyte penetration assay with capacitated human sperm; type: cell-based; conditions: 200 micromoles per l; 30 min pretreatment of sperm and oocytes
Procedure: The activity of Ajoene in the hamster oocyte penetration assay was tested. This assay is routinely used to test the ability of capacitated human sperm to penetrate oocytes.
To obtain oocytes, mature hamsters (on day 1 of the estrous cycle) were injected intraperitoneally with 40 International Units (IU) pregnant mare serum gonadotropin (PMSG), followed by 40 IU human chorionic gonadotropin (HCG) 55 hours late. After 16 hours, the animals were sacrificed by intracardiac injection of 0.1 ml T61 (euthanizing agent), the oviducts were removed, and the cumulus mass was collected. Cumulus cells were removed by hyaluronidase treatment, and the freed oocytes were transferred into a watchglass containing 3 ml Biggers-Whitter-Whittingham (BWW) medium supplemented with human serum albumin (HSA) (BWW/HSA; pH 7.5). […]
Human sperm was from a donor with known fertility (No. 113). […] A small portion of the original sample was analyzed (computer-assisted sperm analysis) using the Cell-Soft package. […] The swim-up was collected (about 0.5 ml), the cells were counted (Makler chamber), and their motility determined (%). […] Thereafter, motility and cell density were determined once again, and the sample was divided into three equal portions, each to be subjected to appropriate treatment. […]

[3] = test system: HIV-1LBi (HIV-infected MOLT-4 cells, syncytiotrophoblasts); test: Lymphocyte-mediated HIV infection of syncytiotrophoblasts; type: cell-based; conditions: 200 micromoles per liter, 24 hours, virtually all colonies
Text: Human fetal placental epithelial cells, known as syncytiotrophoblasts, were organized in a monolayer and exposed to HIV-infected lymphocytic cells and, as a negative control, to uninfected cells of the same type. This experimental system, closely simulating the actual conditions under which syncytiotrophoblasts would be exposed to HIV-infected cells in vivo, was used to assess integrin-modulating effects of Ajoene.
In order to assess the ability of Ajoene to inhibit lymphocyte-mediated HIV infection of syncytiotrophoblasts, HIV-1LBi -infected MOLT-4 cells were added to adherent cultures of uninfected syncytiotrophoblasts in the presence and absence of Ajoene. Various additional control conditions were also established. First, some wells received filtered (0.45 micrometer) supernatant of cell-free HIV from infected cell cultures. Yet other negative controls included syncytiotrophoblasts cultured alone and syncytiotrophoblasts cultured with uninfected MOLT-4 cells. After 24 hours, the cocultures were washed to removed unbound lymphocytes, fixed, permeabilized, stained for viral core antigens (p24 and p55), and viewed under a fluorescence microscope.

melanoma B16 cells [4] = test: Experimental metastasis, lung colonization by melanoma B16 cells; type: in vivo, C57BL/6 mice; conditions: B16 cells pretreated 30 min; 200 micromoles per liter; 3 weeks
Procedure: A suspension of 10^5 melanoma B16 cells was pretreated for 30 min with Ajoene, and the suspension (including Ajoene) was injected intravenously into male C57BL/6 mice. The mice were sacrificed 3 weeks post-injection, and their lungs subjected to microscopic examination.

C=CCSSC=CC[S+]([O-])CC=C (stereo not shown) [Ajoene, 4,5,9-trithiadodeca-1,6,11-triene-9-oxide]
inhibition of adhesion to CS-1 (VLA-4 (CS-1)): no inhibition of adhesion to CS-1 could be detected | IC50 (HIV-1RF): 25 µM | IC50 (melanoma B16 cells [1]): 2500 nM | inhibition of TPA-induced homotypic adhesion of PBLs (LFA-1): completely inhibited | Penetration (penetrated oocytes / total oocytes) [2]: 0% | prevention of lymphocyte-mediated HIV infection of syncytiotrophoblasts [3]: totally prevented | prevention of lung colonization (melanoma B16 cells [4]): prevented lung colonization
